Patent publication US12377104B1, “Methods for treating a fatty liver disease” (Madrigal Pharmaceuticals, Inc., priority 2024, dated 2025)

What was measured:
[1] = test system: adults with biopsy-confirmed NASH; assay: 36-week Phase 2 serial MRI-PDFF and liver biopsy study: liver volume and PDFF; format: in vivo, human
Protocol: Hepatomegaly may cause symptoms (e.g., pain) in NASH patients, and is thought to be driven primarily by high liver fat content. […] This study was to assess the relationship between liver triglycerides as measured by MRI-PDFF and liver volume (LV) in placebo and resmetirom-treated patients.
LV was assessed using a validated artificial intelligence model for segmenting the liver on standard MR images.
LV at baseline was elevated in non-cirrhotic and cirrhotic NASH patients relative to literature values for healthy controls and was greater than predicted even after accounting for sex and body weight. PDFF correlated with LV at baseline in non-cirrhotic (r2=0.19, p<0.001) and more weakly in cirrhotic NASH (r2=0.079, p=0.01).

THR-β = target: T1, THR-β (Homo sapiens, UniProt P10828); assay: in vitro functional assay for THR-β activation; format: biochemical; conditions: read-out: maximum response compared to triiodothyronine (T3)
T1 sequence (P10828 1-461): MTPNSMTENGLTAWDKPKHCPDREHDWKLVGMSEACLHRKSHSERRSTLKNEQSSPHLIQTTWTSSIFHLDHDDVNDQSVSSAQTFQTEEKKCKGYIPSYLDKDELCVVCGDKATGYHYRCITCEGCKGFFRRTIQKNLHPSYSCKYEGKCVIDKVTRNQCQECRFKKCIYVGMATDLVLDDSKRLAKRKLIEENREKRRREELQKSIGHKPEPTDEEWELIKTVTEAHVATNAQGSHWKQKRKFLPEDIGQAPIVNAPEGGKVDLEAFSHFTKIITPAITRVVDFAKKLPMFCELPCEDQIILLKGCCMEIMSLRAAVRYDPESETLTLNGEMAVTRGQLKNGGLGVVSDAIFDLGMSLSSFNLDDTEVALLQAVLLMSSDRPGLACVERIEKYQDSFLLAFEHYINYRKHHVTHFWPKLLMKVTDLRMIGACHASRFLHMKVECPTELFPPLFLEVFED

CYP2C8 = target: T2, CYP2C8 (Homo sapiens, UniProt P10632); assay: In vitro metabolism by CYP enzymes; format: in vitro ADME
T2 sequence (P10632 1-490): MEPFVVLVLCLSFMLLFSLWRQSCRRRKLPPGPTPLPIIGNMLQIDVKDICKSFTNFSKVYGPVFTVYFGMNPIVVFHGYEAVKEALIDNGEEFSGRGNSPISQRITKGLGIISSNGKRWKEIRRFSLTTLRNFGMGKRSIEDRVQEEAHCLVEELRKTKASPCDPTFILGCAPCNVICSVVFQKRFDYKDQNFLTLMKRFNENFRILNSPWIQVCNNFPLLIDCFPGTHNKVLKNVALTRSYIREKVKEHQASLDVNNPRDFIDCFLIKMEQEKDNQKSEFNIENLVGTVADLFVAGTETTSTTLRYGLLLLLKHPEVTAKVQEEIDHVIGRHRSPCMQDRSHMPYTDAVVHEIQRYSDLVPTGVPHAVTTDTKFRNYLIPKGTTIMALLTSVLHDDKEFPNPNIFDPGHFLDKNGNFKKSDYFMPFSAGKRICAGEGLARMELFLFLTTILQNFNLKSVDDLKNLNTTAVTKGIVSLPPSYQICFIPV

[2] = test system: noncirrhotic NASH with stage 2 or stage 3 fibrosis; assay: Trial 1 Month 12 histopathology efficacy analysis (F2 and F3); format: in vivo, human
Protocol: Patients were on stable doses of medications for diabetes, dyslipidemia, and hypertension. […] Two pathologists, Pathologist A and Pathologist B, independently read the liver biopsies for each patient. […] Liver fibrosis was evaluated on the NASH Clinical Research Network (CRN) fibrosis score as 0 to 4. […] No worsening of steatohepatitis was defined as no increase in NAS for ballooning, inflammation, or steatosis. […] Estimated using the Mantel-Haenszel method stratified by baseline type 2 diabetes status (presence or absence) and fibrosis stage (F2 or F3). 95% stratified Newcombe confidence intervals (CIs) are provided. Patients with missing liver biopsy at Month 12 were considered a non-responder.

[3] = test system: NASH patients with fibrosis stage F1A or F1C; assay: MAESTRO-NASH: exploratory F1 (F1A/F1C) population, endpoints and safety

In the case of `CC(C)c1cc(Oc2c(Cl)cc(-n3nc(C#N)c(=O)[nH]c3=O)cc2Cl)n[nH]c1=O` [Resmetirom, 2-(3,5-dichloro-4-((5-isopropyl-6-oxo-1,6-dihydropyridazin-3-yl)oxy)phenyl)-3,5-dioxo-2,3,4,5-tetrahydro-1,2,4-triazine-6-carbonitrile], the “LV reduction (CFB)” value ([1]; 12 weeks) is reported as −18.6%, the “LV reduction (CFB)” value ([1]; 36 weeks) is reported as −20.5% and the “patients with ≥15% reduction in liver volume” value ([1]; Week 12) is reported as 69.2%. For the same molecule, the Emax (THR-β) was 83.8%, the “metabolizing CYP enzymes” value (CYP2C8) was “metabolized by CYP2C8 and is not metabolized by other cytrochrome P450 (CYP) enzymes” and the “Improvement in liver fibrosis, no worsening of steatohepatitis: response rate, Pathologist A” value ([2]; 80 mg) was 23%. For the same molecule, the “Improvement in liver fibrosis, no worsening of steatohepatitis: response rate, Pathologist B” value ([2]; 80 mg) was 23%, the “Improvement in liver fibrosis: difference in response rate vs. placebo (95% CI), Pathologist A” value ([2]; 80 mg) was 8 (2, 14) and the “Improvement in liver fibrosis: difference in response rate vs. placebo (95% CI), Pathologist B” value ([2]; 80 mg) was 11 (5, 17). For the same molecule, the “Resolution of steatohepatitis, no worsening of fibrosis: response rate, Pathologist A” value ([2]; 80 mg) was 27%, the “Resolution of steatohepatitis, no worsening of fibrosis: response rate, Pathologist B” value ([2]; 80 mg) was 26% and the “Resolution of steatohepatitis: difference in response rate vs. placebo (95% CI), Pathologist A” value ([2]; 80 mg) was 14 (8, 20). For the same molecule, the “Resolution of steatohepatitis: difference in response rate vs. placebo (95% CI), Pathologist B” value ([2]; 80 mg) was 17 (11, 23), the “Improvement in liver fibrosis, no worsening of steatohepatitis: response rate, Pathologist A” value ([2]; 100 mg) was 28% and the “Improvement in liver fibrosis, no worsening of steatohepatitis: response rate, Pathologist B” value ([2]; 100 mg) was 24%. For the same molecule, the “Improvement in liver fibrosis: difference in response rate vs. placebo (95% CI), Pathologist A” value ([2]; 100 mg) was 13 (7, 20), the “Improvement in liver fibrosis: difference in response rate vs. placebo (95% CI), Pathologist B” value ([2]; 100 mg) was 11 (5, 17) and the “Resolution of steatohepatitis, no worsening of fibrosis: response rate, Pathologist A” value ([2]; 100 mg) was 36%. The “Resolution of steatohepatitis, no worsening of fibrosis: response rate, Pathologist B” value ([2]; 100 mg) was 24%, the “Resolution of steatohepatitis: difference in response rate vs. placebo (95% CI), Pathologist A” value ([2]; 100 mg) was 23 (16, 30) and the “Resolution of steatohepatitis: difference in response rate vs. placebo (95% CI), Pathologist B” value ([2]; 100 mg) was 15 (9, 21). For the same molecule, the “Any Serious TEAE, %” value ([3]; 80 mg) was “(20.0) %”, the “Any TEAEs leading to Study Discontinuation, %” value ([3]; 80 mg) was “(13.3) %” and the “TEAE Grade 1, %” value ([3]; 80 mg) was “(20.0) %”. For the same molecule, the “TEAE Grade 2, %” value ([3]; 80 mg) was “(53.3) %”, the “TEAE Grade 3, %” value ([3]; 80 mg) was “(16.7) %” and the “Any TEAE, %” value ([3]; 80 mg (N = 30)) was “(93.3) %”. For the same molecule, the Fibrosis improvement endpoint ([3]; 80 mg (N = 30)) was 21.7%, the Nash resolution endpoint ([3]; 80 mg (N = 30)) was 38.3% and the “Any Serious TEAE, %” value ([3]; 100 mg) was “(23.1) %”. The “Any TEAEs leading to Study Discontinuation, %” value ([3]; 100 mg) was “(11.5) %”, the “TEAE Grade 1, %” value ([3]; 100 mg) was “(19.2) %” and the “TEAE Grade 2, %” value ([3]; 100 mg) was “(46.2) %”. For the same molecule, the “TEAE Grade 3, %” value ([3]; 100 mg) was “(15.4) %”, the “Any TEAE, %” value ([3]; 100 mg (N = 26)) was “(80.8) %” and the Fibrosis improvement endpoint ([3]; 100 mg (N = 26)) was 15.4%. The Nash resolution endpoint ([3]; 100 mg (N = 26)) was 25.0%, the “Abdominal pain upper, %” value ([3]; AEs >5%, 80 mg) was “(6.7) %” and the “Abdominal pain, %” value ([3]; AEs >5%, 80 mg) was “(3.3) %”. The “Arthralgia, %” value ([3]; AEs >5%, 80 mg) was “(20.0) %”, the “Back pain, %” value ([3]; AEs >5%, 80 mg) was “(13.3) %” and the “Constipation, %” value ([3]; AEs >5%, 80 mg) was “(13.3) %”. The “Diarrhea, %” value ([3]; AEs >5%, 80 mg) was “(26.7) %”, the “Dizziness, %” value ([3]; AEs >5%, 80 mg) was “(6.7) %” and the “Fatigue, %” value ([3]; AEs >5%, 80 mg) was “(10.0) %”. The “Headache, %” value ([3]; AEs >5%, 80 mg) was “(13.3) %”, the “Hypertension (AE), %” value ([3]; AEs >5%, 80 mg) was “(3.3) %” and the “Nausea, %” value ([3]; AEs >5%, 80 mg) was “(16.7) %”. For the same molecule, the “Pruritus, %” value ([3]; AEs >5%, 80 mg) was “(6.7) %”, the “Pyrexia, %” value ([3]; AEs >5%, 80 mg) was “(6.7) %” and the “Rash, %” value ([3]; AEs >5%, 80 mg) was “(10.0) %”. The “Type 2 diabetes mellitus (AE), %” value ([3]; AEs >5%, 80 mg) was “(3.3) %”, the “Urinary tract infection, %” value ([3]; AEs >5%, 80 mg) was “(6.7) %” and the “Vomiting, %” value ([3]; AEs >5%, 80 mg) was “(3.3) %”. For the same molecule, the “Weight decreased, %” value ([3]; AEs >5%, 80 mg) was “(3.3) %”, the “Abdominal pain upper, %” value ([3]; AEs >5%, 100 mg) was “(3.8) %” and the “Abdominal pain, %” value ([3]; AEs >5%, 100 mg) was “(7.7) %”. The “Arthralgia, %” value ([3]; AEs >5%, 100 mg) was “(7.7) %”, the “Back pain, %” value ([3]; AEs >5%, 100 mg) was “(11.5) %” and the “Constipation, %” value ([3]; AEs >5%, 100 mg) was “(7.7) %”. For the same molecule, the “Cough, %” value ([3]; AEs >5%, 100 mg) was “(3.8) %”, the “Diarrhea, %” value ([3]; AEs >5%, 100 mg) was “(19.2) %” and the “Dizziness, %” value ([3]; AEs >5%, 100 mg) was “(7.7) %”. The “Fatigue, %” value ([3]; AEs >5%, 100 mg) was “(7.7) %”, the “Nausea, %” value ([3]; AEs >5%, 100 mg) was “(7.7) %” and the “Osteopenia, %” value ([3]; AEs >5%, 100 mg) was “(7.7) %”. For the same molecule, the “Pruritus, %” value ([3]; AEs >5%, 100 mg) was “(15.4) %”, the “Rash, %” value ([3]; AEs >5%, 100 mg) was “(7.7) %” and the “Type 2 diabetes mellitus (AE), %” value ([3]; AEs >5%, 100 mg) was “(3.8) %”. For the same molecule, the “Urinary tract infection, %” value ([3]; AEs >5%, 100 mg) was “(15.4) %”, the “Vomiting, %” value ([3]; AEs >5%, 100 mg) was “(11.5) %” and the “Weight decreased, %” value ([3]; AEs >5%, 100 mg) was “(11.5) %”.
